# In patent EP4744648A1, “LIPOPEPTIDE-CONTAINING FAT-DISSOLVING PRODUCT, AND PREPARATION METHOD THEREFOR AND USE THEREOF” (Bloomage Biotechnology Corporation Limited, priority 2023, dated 2024):
# Where two headings read alike, the source gives them in different places.
# What was measured:
# [1] = test system: Mouse adipocyte cell line 3T3-F442A; assay: In vitro cytotoxicity test: relative growth rate of cells by CCK-8; type: cell-based; conditions: for relative growth rate: X±SD
# Experimental: Mouse adipocyte cell line 3T3-F442A in the logarithmic growth phase was seeded into a 96-well plate at a density of 1×10^5 cells/mL, with 100 µL per well. The culture medium consisted of a basal culture medium supplemented with 10% fetal bovine serum. The seeded cells were incubated conventionally in a carbon dioxide incubator at 37°C and 5% CO2 for 24 h.
# The solution was freshly prepared before use.
# After routine incubation for 24 h, the old culture medium was discarded, and then 100 µL of sample solution was added to replace it in the experimental group. An equal volume of serum-free culture medium was added to the normal control group. Each concentration was set up with at least three replicate wells.
# After another incubation for 24 h, the relative growth rate of cells was detected by CCK-8. The culture medium was discarded, 100 µL of CCK-8 diluted 10-fold with the serum-free medium was added to each well. The plate was incubated in a cell incubator for another 2 h. The absorbance was determined using a microplate reader at a wavelength of 450 nm. The relative growth rate (RGR) is a ratio of the absorbance of the experimental group to the absorbance of the normal control group.
# 3T3-F442A mouse adipocytes in the logarithmic growth phase were seeded into a 96-well plate at a density of 1 × 10^5 cells/mL, with 100 µL per well. After incubation for 24 h, the culture medium was replaced with 100 µL of culture medium containing different concentrations of samples. An equal volume of serum-free culture medium was added to the blank control group, and the incubation was continued for another 24 h. The relative growth rate of cells was determined by CCK-8. The blank control was set as 100%, the relative growth rate and half inhibitory concentration of each group were calculated.
# Kunming mice [2] = conditions: for Adipocyte density (n/mm^2): day 42, M±SEM
# Experimental: In this example, 6-week-old Kunming mice (20-30 g) were used as the model. A total of 200 µL of different drugs was injected subcutaneously at multiple sites with multiple needles into the left inguinal region of each mouse. The experimental groups were set as follows. • 1) Negative control group (n = 9): 200 µL of sterile normal saline; • 2) Sodium deoxycholate group (n = 9): 200 µL of 1% sodium deoxycholate sterile normal saline solution; and • 3) Surfactin HXRZ group (n = 9): 200 µL of 1% surfactin HXRZ sterile normal saline solution.
# On day 42 of the experiment, the mice were sacrificed and dissected. The left inguinal adipose tissue was harvested, fixed immediately in adipose tissue fixative and then embedded in paraffin. […] The adipocyte density was then calculated.
# Statistical analysis was performed by using ulceration as an indicator of severe local inflammation and subcutaneous nodules and induration as indicators of mild local inflammation.
# [3] = test system: transgenic obese (ob/ob) mice; conditions: for degradation of adipose tissue (H-E sections, FIG. 6): Example 5, 200 µL, one mouse
# Experimental: 6-week-old transgenic obese (ob/ob) mice were used as the animal model. Different drugs were injected into the adipose pads of the left buttock. The mice were totally divided into three groups with 7-10 mice per group, as specified below. • 1) Negative control group: injected with 200 µL of sterile normal saline; • 2) 1% sodium deoxycholate group: injected with 200 µL of sterile normal saline solution containing 1% sodium deoxycholate; • 3) 0.1% surfactin HXRZ group: injected with 200 µL of sterile normal saline solution containing 0.1% surfactin HXRZ.
# The day of the first administration was defined as Day 1 of the experiment. Additional administrations were performed on Day 3 and Day 5, respectively. The general condition and administration sites of the mice were observed regularly throughout the experiment. On Day 21 of the experiment, the mice were sacrificed and dissected. The adipose tissue of the left buttock was isolated, fixed immediately in adipose tissue fixative, and then embedded in paraffin. The adipose tissue was stained by hematoxylin and eosin staining for pathological examination, followed by observation and analysis under an optical microscope.
# Specifically, 6-week-old transgenic obese (ob/ob) mice were used as the animal model, with one mouse per group. 200 µL each of 0.5% and 1% surfactin HXRZ normal saline solutions (test samples) were injected into the adipose pads of the left buttock, respectively. The day of the first administration was defined as Day 1 of the experiment. Additional administrations were performed on Day 3 and Day 5, respectively. The general condition and administration sites of the mice were observed regularly throughout the experiment. On Day 21 of the experiment, the mice were sacrificed and dissected. The adipose tissue of the left buttock of the mice was isolated, fixed immediately in adipose tissue fixative, and then embedded in paraffin. The adipose tissue was stained by hematoxylin and eosin staining for pathological examination, followed by observation and analysis under an optical microscope.
# [4] = Surface tension at serial dilutions (CMC value determination), automatic interfacial tensiometer; type: physicochemical
# Experimental: A 0.1% surfactin HXRZ solution and a sodium deoxycholate solution were separately prepared using purified water, followed by serial dilution to obtain different gradient concentrations. The surface tensions at different concentrations were determined respectively via a JZ-200A automatic interfacial tensiometer. Table 1 CMC value determination results
# Kunming mice [5] = test system: Kunming mice
# Experimental: 6-week-old Kunming mice (weighing 20-30 g) were used as the model. A total of 200 µL of different drugs was injected subcutaneously at multiple sites with multiple needles into the left inguinal region of each mouse. The experimental groups were set as follows: • 1) Negative control group (n = 3): 200 µL of sterile normal saline; • 2) 1% sodium deoxycholate group (n = 3): 200 µL of 1% sodium deoxycholate normal saline solution; • 3) 2% sodium deoxycholate group (n = 3): 200 µL of 2% sodium deoxycholate normal saline solution; • 4) 0.5% surfactin HXRZ group (n = 3): 200 µL of 0.5% surfactin HXRZ normal saline solution; • 5) 1% surfactin HXRZ group (n = 3): 200 µL of 1% surfactin HXRZ normal saline solution; • 6) 2% surfactin HXRZ group (n = 3): 200 µL of 2% surfactin HXRZ normal saline solution;
# Administration was performed once every 7 days. Ulceration at the administration site of each mouse was observed throughout the administration period. On day 21 of the experiment, all mice were sacrificed and dissected.
# Female Kunming mice = assay: Animal experiment comparing surfactin-C14 and surfactin-C15: subcutaneous injection in right inguinal region, four administrations; conditions: for Mean adipocyte area (x±SEM, mm^2) / Mean adipocyte density (x±SEM, n/mm^2): H-E sections
# Experimental: Female Kunming mice (aged 7-8 weeks, weighing 25.55-33.76 g) were taken, ranked in ascending order of body weight, and divided into groups of 7-8 mice using a Latin method. The tails of mice in each cage were marked and distinguished with an oil-based permanent marker.
# Based on the injection dose of the positive drug reported in the literature, the subcutaneous injection dose for this test was determined to be 10 mg/mL at a volume of 200 µL. Subcutaneous injection was performed using a four-needle mesotherapy tip (34 G, 1.5 mm long, inner diameter 0.6 mm). Administration was performed sequentially from top to bottom along the right inguinal region. Administration was performed once every 14 days for a total of four administrations.
# During the administration period, food intake, water consumption and general activity of all experimental animals in each group were observed daily under identical feeding conditions and housing environments. Daily observation was performed on each mouse to check for ulceration, induration and other lesions at the administration site. 14 days after the second administration, two mice from each group were sacrificed and dissected. All the remaining mice were sacrificed and dissected 14 days after the fourth administration.
# In this example, changes in adipose tissue at the administration sites of experimental mice were statistically analyzed. Specifically, the adipose tissue was excised from the inguinal region on the inoculated side (right side), weighed and recorded. The adipose tissue-to-body weight percentage of the inoculated side for each mouse was then calculated using the formula: [(weight of adipose tissue on the inoculated side/body weight of the mouse) × 100%].
# Further statistical analysis was performed on adipocyte density and adipocyte area. The adipose tissue from the inoculated side was immersed in adipose tissue fixative and sent for hematoxylin-eosin (H-E) staining. After imaging was completed, all measurements were standardized in millimeters. The area of adipose tissue in each image was measured, and the number of adipocytes in each image was counted. The area of a single adipocyte was calculated as: adipocyte area = total adipose tissue area/adipocyte number; adipocyte density = adipocyte number/total adipose tissue area.
# [6] = Example 8, 0.005 mg/mL, 24 h, 3T3-F442A
# [7] = Example 8, 0.01 mg/mL, 24 h, 3T3-F442A
# [8] = Example 8, 0.02 mg/mL, 24 h, 3T3-F442A
# [9] = Example 8, 0.04 mg/mL, 24 h, 3T3-F442A
# [10] = Example 8, 0.08 mg/mL, 24 h, 3T3-F442A
# [11] = 1 mg/mL (low-dose), four administrations
# [12] = 5 mg/mL (medium-dose), four administrations
# [13] = 10 mg/mL, four administrations once every 14 days, right inguinal
substance,measurement,setting,value
surfactin [Surfactin HXRZ],treatment time at which adipocytes were completely lysed,[1]; 0.08 mg/mL,24 h
same,"cell morphology of adipocytes (inverted microscope, FIG. 4)","[1]; 0.08 mg/mL, 24 h",nearly all cells died
same,half maximal inhibitory concentrations IC50,"[1]; 3T3-F442A adipocytes, 24 h, calculated from Table 2 curves",27.1 µg/mL
same,Relative growth rate (%),"[1]; Example 2, 0.005 mg/mL, 24 h, 3T3-F442A",101.2±15.71%
same,Relative growth rate (%),"[1]; Example 2, 0.01 mg/mL, 24 h, 3T3-F442A",90.23±4.30%
same,Relative growth rate (%),"[1]; Example 2, 0.02 mg/mL, 24 h, 3T3-F442A",67.56±3.81%
same,Relative growth rate (%),"[1]; Example 2, 0.04 mg/mL, 24 h, 3T3-F442A",19.34±1.43%
same,Relative growth rate (%),"[1]; Example 2, 0.08 mg/mL, 24 h, 3T3-F442A",10.74±0.51%
same,Relative growth rate (%),"[1]; Example 3, 0.02 mg/mL, 0.5 h",75.21±4.86%
same,Relative growth rate (%),"[1]; Example 3, 0.02 mg/mL, 4 h",61.07±5.11%
same,Relative growth rate (%),"[1]; Example 3, 0.02 mg/mL, 24 h",67.56±0.09%
same,Relative growth rate (%),"[1]; Example 3, 0.04 mg/mL, 0.5 h",59.48±3.47%
same,Relative growth rate (%),"[1]; Example 3, 0.04 mg/mL, 4 h",37.95±1.99%
same,Relative growth rate (%),"[1]; Example 3, 0.04 mg/mL, 24 h",19.34±0.03%
same,Relative growth rate (%),"[1]; Example 3, 0.08 mg/mL, 0.5 h",32.81±6.73%
same,Relative growth rate (%),"[1]; Example 3, 0.08 mg/mL, 4 h",24.38±3.37%
same,Relative growth rate (%),"[1]; Example 3, 0.08 mg/mL, 24 h",10.74±0.01%
same,relative growth rate,[1]; [6],"103.67±1.59 b, c %"
same,relative growth rate,[1]; [7],"67.49±5.46 a, b, c %"
same,relative growth rate,[1]; [8],"20.76±5.32 a, b, c %"
same,relative growth rate,[1]; [9],9.99±0.38 b %
same,relative growth rate,[1]; [10],"9.01±0.06 b, c %"
same,Adipose tissue weight,"Kunming mice [2]; 1 %, 200 µL s.c. left inguinal, once every 14 days, day 42, n = 9",0.2007 ± 0.0365 g
same,Adipocyte density (n/mm^2),"Kunming mice [2]; 1 %, 200 µL s.c.",676.94±51.326 n/mm^2
same,Adipocyte density (n/mm^2),"Kunming mice [2]; 1 %, 200 µL s.c., listed as surfactin HXRZ",676.94±51.326 n/mm^2
same,Fat index (%),"Kunming mice [2]; 1 %, 200 µL s.c., day 42, treated-side inguinal adipose weight/body weight × 100%",0.50±0.10 %
same,Ulceration,"Kunming mice [2]; mouse, in vivo",0
same,ulceration at the administration sites over the administration cycle,"Kunming mice [2]; mouse, in vivo",no ulceration occurred at the administration sites
same,"degradation of adipose tissue at the administration sites (H-E sections, FIG. 5)","[3]; Example 4, 0.1 %, 200 µL in normal saline, left buttock, Days 1, 3, 5, Day 21",induced the degradation of adipose tissue at the administration sites
same,"degradation of adipose tissue (H-E sections, FIG. 6)","[3]; 0.5 %, left buttock, Days 1, 3, 5, Day 21",induced the degradation of adipose tissue in mice
same,"degradation of adipose tissue (H-E sections, FIG. 6)","[3]; 1 %, left buttock, Days 1, 3, 5, Day 21",induced the degradation of adipose tissue in mice
same,induration / ulceration at the administration sites,"[3]; mouse, in vivo",No such phenomena were observed
same,Surface tension value,[4]; solution concentration 0.00078125 % in purified water,39.08 mN/m
same,Surface tension value,[4]; solution concentration 0.0015625 % in purified water,38.38 mN/m
same,Surface tension value,[4]; solution concentration 0.003125 % in purified water,37.64 mN/m
same,Surface tension value,[4]; solution concentration 0.00625 % in purified water,37.16 mN/m
same,Surface tension value,[4]; solution concentration 0.0125 % in purified water,36.28 mN/m
same,Surface tension value,[4]; solution concentration 0.025 % in purified water,35.64 mN/m
same,Surface tension value,[4]; solution concentration 0.05 % in purified water,33.43 mN/m
same,Surface tension value,"[4]; solution concentration 0.05 % in purified water, listed as surfactin HXRZ",33 mN/m
same,Surface tension value,[4]; solution concentration 0.1 % in purified water,33.69 mN/m
same,"degradation of inguinal adipose tissue at the administration sites (dissection, FIG. 9)","Kunming mice [5]; 0.5 %, treated side vs untreated side",a certain degree of degradation
same,degree of ulceration at the administration sites compared with sodium deoxycholate,"Kunming mice [5]; mouse, in vivo",milder than that in the 2% sodium deoxycholate group
same,degree of ulceration compared with sodium deoxycholate,"Kunming mice [5]; mouse, in vivo",milder than that in the 1% sodium deoxycholate group
same,healing of ulceration,"Kunming mice [5]; mouse, in vivo",healed completely
same,healing of ulcers,"Kunming mice [5]; mouse, in vivo",failed to heal
same,ulceration at the injection sites,"Kunming mice [5]; mouse, in vivo, sc",no ulceration occurred at the injection sites
surfactin-C15 [HXRZ-C],"Mean adipocyte area (x±SEM, mm^2)",Female Kunming mice; 1 mg/mL (low-dose),0.003222±0.000161 mm^2
same,"Mean adipocyte density (x±SEM, n/mm^2)",Female Kunming mice; 1 mg/mL (low-dose),355.3684±57.4571 n/mm^2
same,"Mean wet adipose tissue weight (x±SEM, unit: g)",Female Kunming mice; [11],0.198 ± 0.030 g
same,"Mean wet adipose tissue weight/body weight percentage (x±SEM, %)",Female Kunming mice; [11],0.51±0.08 %
same,"Mean adipocyte area (x±SEM, mm^2)",Female Kunming mice; 5 mg/mL (medium-dose),0.003297±0.000274 mm^2
same,"Mean adipocyte density (x±SEM, n/mm^2)",Female Kunming mice; 5 mg/mL (medium-dose),328.9026±63.1322 n/mm^2
same,"Mean wet adipose tissue weight (x±SEM, unit: g)",Female Kunming mice; [12],0.209 ± 0.021 g
same,"Mean wet adipose tissue weight/body weight percentage (x±SEM, %)",Female Kunming mice; [12],0.53±0.05 %
same,"Mean wet adipose tissue weight/body weight percentage (x±SEM, %)","Female Kunming mice; 10 mg/mL, four administrations",0.48±0.02 %
same,"Mean wet adipose tissue weight (x±SEM, unit: g)",Female Kunming mice; [13],0.188 ± 0.011 g
same,"Mean adipocyte area (x±SEM, mm^2)","Female Kunming mice; 10 mg/mL, four administrations",0.004632±0.000253 mm^2
same,"Mean adipocyte density (x±SEM, n/mm^2)","Female Kunming mice; 10 mg/mL, four administrations",251.3400±31.0087 n/mm^2
same,relative growth rate,[1]; [6],"76.06±3.24 #, a, b %"
same,relative growth rate,[1]; [7],"43.53±3.35 #, a %"
same,relative growth rate,[1]; [8],"17.61±1.76 #, a %"
same,relative growth rate,[1]; [9],10.29±0.38 b %
same,relative growth rate,[1]; [10],"10.31±0.48 *,#,a,b %"
same,IC50 against adipocytes relative to HXRZ-A,"[1]; Example 8, 3T3-F442A, 24 h",approximately half that of HXRZ-A
surfactin-C13 [HXRZ-A],relative growth rate,[1]; [6],97.66±3.27 c %
same,relative growth rate,[1]; [7],"97.00±3.13 b, c %"
same,relative growth rate,[1]; [8],"34.74±3.25 #, b, c %"
same,relative growth rate,[1]; [9],9.83±0.36 %
same,relative growth rate,[1]; [10],"9.27±0.24 b, c %"
surfactin-C14 [HXRZ-B],"Mean adipocyte area (x±SEM, mm^2)",Female Kunming mice; 1 mg/mL (low-dose),0.00284±0.000267 mm^2
same,"Mean adipocyte density (x±SEM, n/mm^2)",Female Kunming mice; 1 mg/mL (low-dose),418.7156±85.9688 n/mm^2
same,"Mean wet adipose tissue weight (x±SEM, unit: g)",Female Kunming mice; [11],0.326 ± 0.106 g
same,"Mean wet adipose tissue weight/body weight percentage (x±SEM, %)",Female Kunming mice; [11],0.76±0.21%
same,"Mean adipocyte area (x±SEM, mm^2)",Female Kunming mice; 5 mg/mL (medium-dose),0.003554±0.00047 mm^2
same,"Mean adipocyte density (x±SEM, n/mm^2)",Female Kunming mice; 5 mg/mL (medium-dose),313.2046±85.5687 n/mm^2
same,"Mean wet adipose tissue weight (x±SEM, unit: g)",Female Kunming mice; [12],0.225 ± 0.039 g
same,"Mean wet adipose tissue weight/body weight percentage (x±SEM, %)",Female Kunming mice; [12],0.56±0.08 %
same,"Mean wet adipose tissue weight/body weight percentage (x±SEM, %)","Female Kunming mice; 10 mg/mL, four administrations",0.58±0.07 %
same,"Mean wet adipose tissue weight (x±SEM, unit: g)",Female Kunming mice; [13],0.232 ± 0.032 g
same,"Mean adipocyte area (x±SEM, mm^2)","Female Kunming mice; 10 mg/mL, four administrations",0.003177±0.000284 mm^2
same,"Mean adipocyte density (x±SEM, n/mm^2)","Female Kunming mice; 10 mg/mL, four administrations",340.3195±31.7463 n/mm^2
same,relative growth rate,[1]; [6],"89.75±7.04 #, c %"
same,relative growth rate,[1]; [7],"46.22±4.26 #, a %"
same,relative growth rate,[1]; [8],"14.74±0.48 #, a %"
same,relative growth rate,[1]; [9],"9.02±0.37 #, c %"
same,relative growth rate,[1]; [10],"8.11±0.24 #, a, c %"
